The text below walks through data of patent US20100130509A1, “NOVEL ANTIBIOTICS” (Nederlandse Organisatie voor toegepast-natuurwe- …, priority 2007, published 2010).

Experiment [1] deals with S. aureus strain ATCC 6538. The experiment in a line: MIC test (CLSI M7-A6 dilution), S. aureus ATCC 6538. It counts as cell-based, Staphylococcus aureus. The note with it: for MIC: Staphylococcus aureus.
The test system of the next experiment is Staphylococcus aureus. The experiment in a line: Antibiotic activity towards Staphylococcus aureus (summary statements). It counts as cell-based. The settings on record: statement in words.
A further experiment relates to S. aureus TTC 03.0236. The experiment in a line: MIC test (CLSI M7-A6 dilution), S. aureus TTC 03.0236. It counts as cell-based. The settings on record: Staphylococcus aureus, TTC03.0236; single strain; TTC is internal collection number. The procedure:
(§1) MIC test were performed according to standard methodology: M7-A6-“Methods for Dilution Antimicrobial Susceptibility Tests for Bacteria That Grow Aerobically”; Approved Standard, Sixth Edition Clinical and Laboratory Standards Institute 2005 (CLSI/formerly NCCLS).

A further experiment relates to S. aureus TTC 03.0239. The experiment in a line: MIC test (CLSI M7-A6 dilution), S. aureus TTC 03.0239. The note with it: Staphylococcus aureus, TTC03.0239; single strain; TTC is internal collection number. It counts as cell-based. On the procedure:
as §1

Another experiment relates to S. epidermis. The experiment in a line: MIC test (CLSI M7-A6 dilution), S. epidermis. The note with it: single strain. It counts as cell-based. The procedure:
as §1

Setting [2] is: ATCC6538, Table II, Example 3, read-out: MIC S. aureus ATCC 6538.
Where [3] appears, read: ATCC6538, single strain, Table I, read-out: MIC S. aureus ATTC 6538.

Converted amounts (≈) assume the structure as drawn. Where two headings read alike, the source gives them in different places.

For `Cc1ccccc1-n1nnnc1C(Cl)(Cl)C(=O)NC1CCNCC1` [NewCo 0062, 2,2-dichloro-N-piperidin-4-yl-2-(1-O— tolyl-1H-tetrazol-5-yl)-acetamide], the “MIC S. aureus ATCC 6538” value in experiment [1] (Table II, Example 3) is 50 µg/mL (≈ 135 µM).
Take `Cc1ccccc1-n1nnnc1C(Cl)(Cl)C(N)=O` [NewCo 0063, 2,2-dichloro-2-(1-o-tolyl-1H-tetrazol-5-yl)-acetamide]: the MIC in experiment [1] (setting [2]) came to 1.56 µg/mL (≈ 5.45 µM). Besides, in the experiment on Staphylococcus aureus, the “antibiotic activity towards Staphylococcus aureus” value is reported as “most notable” and the “efficacy as antimicrobial agents” value is “exceptionally good”.
Turning to `COc1ccccc1NC(=O)C(Cl)(Cl)c1nnnn1-c1ccccc1OC` [NewCo0053, N1-(2-methoxyphenyl)-2,2-dichloro-2-[1-(2-methoxyphenyl)-1H-1,2,3,4-tetraazol-5-yl]acetamide], the MIC in experiment [1] (setting [3]) worked out at 0.78 µg/mL (≈ 1.91 µM); against S. aureus TTC 03.0236, 0.78 µg/mL (≈ 1.91 µM); in the experiment on S. aureus TTC 03.0239 it was 1.56 µg/mL (≈ 3.82 µM); in the experiment with S. epidermis, 0.78 µg/mL (≈ 1.91 µM). Besides, the “antibiotic activity towards Staphylococcus aureus” value with Staphylococcus aureus is “most notable”. For the same compound, the “efficacy as antimicrobial agents” value in the experiment on Staphylococcus aureus is given as “exceptionally good”.
For `Cc1ccccc1-n1nnnc1C(Cl)(Cl)C(=O)Nc1ccncc1` [NewCo 0061, 2,2-dichloro-N-pyridin-4-yl-2-(1-o-tolyl-1H-tetrazol-5-yl)-acetamide], the MIC in experiment [1] (setting [2]) amounted to 0.78 µg/mL (≈ 2.15 µM). Besides, in the experiment with Staphylococcus aureus, the “antibiotic activity towards Staphylococcus aureus” value is listed as “most notable” and the “efficacy as antimicrobial agents” value is recorded as “exceptionally good”.
As to `O=C(Nc1ccccc1)C(Cl)(Cl)c1nnnn1-c1ccccc1` [NewCo0052, N1-phenyl-2,2-dichloro-2-(1-phenyl-1H-1,2,3,4-tetraazol-5-yl)acetamide], the MIC is 1.56 µg/mL (≈ 4.48 µM) in experiment [1] (setting [3]), 1.56 µg/mL (≈ 4.48 µM) in the experiment with S. aureus TTC 03.0236, 1.56 µg/mL (≈ 4.48 µM) against S. aureus TTC 03.0239 and 0.78 µg/mL (≈ 2.24 µM) in the experiment with S. epidermis. The “antibiotic activity towards Staphylococcus aureus” value with Staphylococcus aureus is given as “most notable”. Further, in the experiment with Staphylococcus aureus, the “efficacy as antimicrobial agents” value is listed as “exceptionally good”.
As for `Cc1ccccc1-n1nnnc1C(Cl)(Cl)C(=O)N(C)C` [NewCo 0064, 2-dichloro-N,N-dimethyl-2-(1-o-tolyl-1H-tetrazol-5-yl)-acetamide], the “MIC S. aureus ATCC 6538” value in experiment [1] (Table II, Example 3) came out at 100 µg/mL (≈ 318 µM).
On to `CN[C@H](CC(C)C)C(=O)N[C@H]1C(=O)N[C@@H](CC(N)=O)C(=O)N[C@H]2C(=O)N[C@H]3C(=O)N[C@H](C(=O)N[C@H](C(=O)O)c4cc(O)cc(O)c4-c4cc3ccc4O)[C@H](O)c3ccc(c(Cl)c3)Oc3cc2cc(c3O[C@@H]2O[C@H](CO)[C@@H](O)[C@H](O)[C@H]2O[C@H]2C[C@](C)(N)[C@H](O)[C@H](C)O2)Oc2ccc(cc2Cl)[C@H]1O` [Vancomycin, reference compound], for which the minimal inhibitory concentration (MIC) in experiment [1] (ATCC6538, read-out: MIC S. aureus ATCC 6538) was 0.78 µg/mL (≈ 0.538 µM).
Take `Cc1ccccc1-n1nnnc1C(Cl)(Cl)C(=O)Nc1ccccc1` [NewCo 0058, 2,2-dichloro-N-phenyl-2-(1-o-tolyl-1H-tetrazol-5-yl)-acetamide]: the MIC in experiment [1] (setting [2]) is 0.39 µg/mL (≈ 1.08 µM). In the experiment on Staphylococcus aureus, the “antibiotic activity towards Staphylococcus aureus” value is given as “most notable” and the “efficacy as antimicrobial agents” value is listed as “exceptionally good”.
Take `Cc1ccccc1-n1nnnc1C(Cl)(Cl)C(=O)N1CCNCC1` [NewCo 0060, 2,2-dichloro-1-piprazin-1-yl-2-(1-o-tolyl-1H-tetrazol-5-yl)-ethanone]: the “MIC S. aureus ATCC 6538” value in experiment [1] (Table II, Example 3) was determined as 12.5 µg/mL (≈ 35.2 µM).
As for `Cc1ccccc1-n1nnnc1C(Cl)(Cl)C(=O)NC(C)C` [NewCo 0059, 2,2-dichloro-N-isopropyl-2-(1-o-tolyl-1H-tetrazol-5-yl)-acetamide], the minimum inhibitory concentration (MIC) in experiment [1] (setting [2]) amounted to 25 µg/mL (≈ 76.2 µM).
